Data from publication PMC10916551, “NNMT/1‐MNA Promote Cell‐Cycle Progression of Breast Cancer by Targeting UBC12/Cullin‐1‐Mediated Degradation of P27 Proteins” (Advanced Science, 2023).

Target: T1, UBC12 (Homo sapiens, UniProt P61081)
T1 construct: gene UBE2M; amine-coupled to CM5 chip
T1 sequence (P61081 1-183): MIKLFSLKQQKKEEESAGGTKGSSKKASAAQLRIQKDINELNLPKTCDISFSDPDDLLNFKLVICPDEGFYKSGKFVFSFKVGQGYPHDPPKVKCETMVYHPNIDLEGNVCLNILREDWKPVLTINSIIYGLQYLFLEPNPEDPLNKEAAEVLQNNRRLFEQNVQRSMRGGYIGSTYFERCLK
Experiment: SPR (Biacore T200), UBC12 immobilised on CM5 chip
Assay type: binding

Kd: 168 nM
SMILES: C[n+]1cccc(C(N)=O)c1 [1-MNA]
